# Measured values taken from publication PMC6562865, “Vitis vinifera L. Leaf Extract Inhibits In Vitro Mediators of Inflammation and Oxidative Stress Involved in Inflammatory-Based Skin Diseases” (Antioxidants, 2019).
# Read-outs that look alike come from different tables or passages of the source.
# How the values were obtained:
# IL-8 = IL-8 release in HaCaT cells (ELISA); format: cell-based, human; settings: for IL-8 release induced by TNF-α, pure compounds: 0.1–100 μM, up to the maximum concentration tested (100 μM)
# Experimental: Cells were grown in 24-well plates for 48 h (30,000 cells per well) before the cytokine treatment. IL-8 was quantified using a Human Interleukin-8 ELISA Development Kit as previously described. Preliminary time-course experiments were performed to set the best conditions for further experiments. HaCaT were treated with TNF-α (10 ng/mL), LPS (5 μg/mL), or H2O2 (100 μM), for 3, 6, 24, and 30 h. The IL-8 secretion induced by TNF-α or LPS was tested after 6 h of treatment, while the 24-h time point was chosen for H2O2. Epigallocatechin-3-gallate (EGCG) (20 μM) was used as the reference inhibitor of IL-8 secretion.
# (§1) HaCaT cells were grown in 24-well plates for 48 h (30,000 cells per well), washed with phosphate-buffered saline (PBS), and exposed to UVB (40 mJ/cm^2) light source (Triwood 31/36, W36, V230, Helios Italquartz, Milano, Italy) in a glass bath. Radiation time (about 50 s) was adjusted for each experimental day, measuring energy emission by the LP 471 UVB probe (Delta OHM, Padova, Italy). After radiation, serum free fresh culture medium was immediately added. For the evaluation of IL-8 release, cells were treated for additional 9 h, a time point selected in preliminary time-course experiments. For NF-κB (p65) translocation, HaCaT cells were treated for 1 h after UVB radiation. EGCG (20 μM) was used as reference inhibitor.
# [1] = In vitro skin permeation study, Franz diffusion cell method; format: in vitro ADME, human; settings: for recovery: human
# Excerpt: VVWE was characterized by a validated HPLC-DAD method as previously described. Briefly, two different HPLC methods coupled with a Diode Array Detector (DAD) have been used, the first for anthocyanin detection at 520 nm by the use of a Synergi 4u MAX-RP 80 Å column (250 × 4.60 mm × 4 μm) (Phenomenex, Torrance, CA, USA) and the second for flavonols and caffeic acid derivative detection at 360 nm by Synergi 4u MAX-RP 80 Å column (250 × 2 mm × 4 μm) (Phenomenex, Torrance, CA, USA). The anthocyanins standards, hyperoside and kaempferol-3-O-glucoside, were from Extrasynthese (Genay, France); all the other standards and solvents were bought from Sigma-Aldrich (St. Louis, MO, USA).
# The human epidermis membrane used for in vitro permeation studies was obtained from the abdominal skin of a single donor. The epidermis was prepared according to the heat separation method, as previously reported.
# Ex vivo skin permeation study: the study was performed using the Franz diffusion cell method. The human epidermis was mounted carefully on the receiver compartment of the Franz’s cell with the stratum corneum side in contact with donor solution. The receiver compartment was filled with freshly prepared degassed HCl 0.1 M solution (receiver phase). VVWE (150 mg) solubilized in 0.1 M HCl:EtOH (50:50, v/v) was loaded in the donor compartment (0.5 mL). At predetermined intervals (1, 5, 7, 24, 32, 48 h), 0.2-mL samples were removed from the receiver compartment and immediately replaced with fresh receiver phase. Sink conditions were maintained throughout the experiment. The samples were assayed by HPLC analysis. Four parallel experiments were performed.
# IL-8 promoter = IL-8 promoter activity, IL-8-LUC transient transfection luciferase assay in HaCaT cells; format: cell-based, human; settings: transfected HaCaT, 6 h, 20 μM
# Experimental: (§2) HaCaT cells were plated in 24-well plates and transiently transfected with the plasmid NF-κB-LUC or native IL-8-LUC, both at 250 ng per well, using Lipofectamine® 2000, according to previous studies. Sixteen hours later, the cells were treated for 6 h with increasing concentrations of VVWE in the presence of the pro-inflammatory mediators (TNF-α at 10 ng/mL or LPS at 5 μg/mL). After six hours, cells were harvested and the luciferase assay was performed using the BriteliteTM Plus reagent (PerkinElmer Inc., Massachusetts, USA) according to the manufacturer’s instructions. Data were expressed considering 100% of the luciferase activity related to the cytokine-induced promoter activity.
# NF-κB = assay: NF-κB-driven transcription, NF-κB-LUC transient transfection luciferase assay in HaCaT cells; format: cell-based, human; settings: transfected HaCaT, 6 h, 20 μM
# Experimental: as §2
# NF-κB (p65) = NF-κB (p65) nuclear translocation in HaCaT cells; format: cell-based, human; settings: 20 μM
# Experimental: For the evaluation of the NF-κB (p65) translocation, HaCaT were plated at the concentration of 3 × 10^6 cells/mL in 100-mm plates with fresh complete medium. After 48 h, cells were treated for 1 h with the inflammatory mediators (TNF-α at 10 ng/mL or LPS at 5 μg/mL) and the extract (10–50 μg/mL) under study, using FBS-free medium. Nuclear extracts were prepared using the Nuclear Extraction Kit from the Cayman Chemical Company (Ann Arbor, MI, USA) as previously described.
# Data were expressed considering 100% of the absorbance related to the cytokine-induced NF-κB nuclear translocation. EGCG (20 μM) was used as the reference inhibitor of the NF-κB nuclear translocation. The results are the mean ± SD of three experiments in triplicate.
# as §1
# VEGF = VEGF release in HaCaT cells (ELISA); format: cell-based, human; settings: 20 μM
# Experimental: Cells were grown in 24-well plates for 48 h (30,000 cells per well) before challenge with the pro-inflammatory mediator. VEGF was quantified by the Human VEGF ELISA Development Kit. Briefly, Corning 96-well EIA/RIA plates (Sigma-Aldrich, Milan, Italy) were coated with the antibody provided in the ELISA Kit (PeproTech Inc., London, UK) overnight at 4 °C. After blocking the reaction, 300 μL of samples were transferred into wells at room temperature for 2 h. The amount of VEGF in the samples was detected by spectroscopy (signal read: 450 nm, 0.1 s) as described above. The quantitative measurement of VEGF was done using an optimized standard curve supplied with the ELISA set (100–2000 pg/mL). […] EGCG (20 μM) was used as the reference inhibitor of VEGF secretion.
# MMP-9 = MMP-9 release in HaCaT cells (ELISA); format: cell-based, human; settings: 20 μM
# Experimental: MMP-9 secretion was performed on HaCaT cells treated with TNF-α (10 ng/mL) and (LPS 5 μg/mL) for 3, 6, 24, and 48 h. Cells were grown in 24-well plates (30,000 cell/well) for 48 h, before the treatment. Human MMP-9 ELISA Kit from RayBio® (Norcross GA, USA) was used to quantify MMP-9 secretion according to manufacturer’s instructions. 300 μL of samples in duplicate were transferred into a 96-well plate coated with anti-human MMP-9 and incubated overnight at 4 °C with gentle shaking. MMP-9 secreted was detected by the use of biotinylated and streptavidin–horseradish peroxidase (HRP) conjugate antibodies as previously described. The quantitative measurement of MMP-9 was done using an optimized standard curve supplied with the ELISA kit (8.23–6000 pg/mL). The MMP-9 secretion reached the maximum at 24 h for both TNF-α and LPS. VVWE was tested at 10–50 μg/mL in the presence of stimuli and between 2.5–200 μg/mL without the pro-inflammatory mediators.
# [2] = human epidermis, Franz cell, 150 mg VVWE, four replicates, read-out: Permeated Amount (% Recovery) (converted)
# [3] = human epidermis, Franz cell, 150 mg VVWE, four replicates, read-out: Retained Amount in the Epidermidis (% Recovery) (converted)
# [4] = µg per g VVWE, human epidermis, Franz cell, 150 mg VVWE
# [5] = µg per g VVWE, human epidermis, Franz cell, 150 mg VVWE, 48 h, receiver phase
# [6] = human epidermis, Franz cell, 150 mg VVWE, four replicates
Compound,"Retained Amount in the Epidermidis ± SD [1, 4] [µg/g]","Permeated Amount ± SD [1, 5] [µg/g]","Permeated Amount (% Recovery) [1, 6] [%]","Retained Amount in the Epidermidis (% Recovery) [1, 6] [%]","recovery [1, 2] [%]","recovery [1, 3] [%]",further results
O=C(/C=C/c1ccc(O)c(O)c1)O[C@@H](C(=O)O)[C@@H](O)C(=O)O [Caftaric acid],10.20 ± 9.00,47.59 ± 27.64,,,0.476,0.102,"IL-8 release induced by TNF-α, pure compounds (IL-8): failed to reduce IL-8 release; Permeated Amount ± SD ([1]; µg per g VVWE, human epidermis, Franz cell, 150 mg VVWE, 48 h, receiver phase, listed as caftaric acid): 47.59 µg/g; Retained Amount in the Epidermidis ± SD ([1]; µg per g VVWE, human epidermis, Franz cell, 150 mg VVWE, listed as caftaric acid): 10.20 µg/g"
OC[C@H]1O[C@@H](Oc2cc3c(O)cc(O)cc3[o+]c2-c2cc(O)c(O)c(O)c2)[C@H](O)[C@@H](O)[C@@H]1O [Delphinidin 3-O-glucoside],0.04 ± 0.08,0.48 ± 0.68,0.050,0.004,,,
O=c1c(O[C@@H]2O[C@H](CO)[C@H](O)[C@H](O)[C@H]2O)c(-c2ccc(O)c(O)c2)oc2cc(O)cc(O)c12 [Hyperoside],1.34 ± 1.43,0.47 ± 0.68,,,0.02,0.058,
COc1cc(-c2[o+]c3cc(O)cc(O)c3cc2O[C@@H]2O[C@H](CO)[C@@H](O)[C@H](O)[C@H]2O)cc(OC)c1O [Malvidin 3-O-glucoside],0.29 ± 0.58,0.92 ± 1.22,0.072,0.023,,,
COc1cc(-c2[o+]c3cc(O)cc(O)c3cc2O[C@@H]2O[C@H](CO)[C@@H](O)[C@H](O)[C@H]2O)cc(O)c1O [Petunidin 3-O-glucoside],,,,,,,Permeated Amount (% Recovery) [1]: 0.058%; Permeated Amount ± SD [1]: 0.38 ± 0.53 µg/g
O=C(O)[C@H]1O[C@@H](Oc2c(-c3ccc(O)c(O)c3)oc3cc(O)cc(O)c3c2=O)[C@H](O)[C@@H](O)[C@@H]1O [Quercetin 3-O-glucuronide],,,,,,,"IL-8 release induced by TNF-α, pure compounds (IL-8): failed to reduce IL-8 release; Permeated Amount (% Recovery) [1]: 0.177%"
C[C@@H]1O[C@@H](OC[C@H]2O[C@@H](Oc3c(-c4ccc(O)c(O)c4)oc4cc(O)cc(O)c4c3=O)[C@H](O)[C@@H](O)[C@@H]2O)[C@H](O)[C@H](O)[C@H]1O [Rutin],0.80 ± 0.91,0.30 ± 0.35,,,0.023,0.061,
Epigallocatechin-3-gallate [EGCG],,,,,,,"inhibition of LPS-induced IL-8 secretion (IL-8; LPS 5 μg/mL, 6 h, 20 μM): 84.9%; inhibition of TNF-α-induced IL-8 secretion (IL-8; TNF-α 10 ng/mL, 6 h, 20 μM): 62.1%; inhibition of UVB-induced IL-8 secretion (IL-8; UVB 40 mJ/cm^2, 9 h, 20 μM): 61.7%; inhibition of LPS-induced IL-8 promoter activity (IL-8 promoter; LPS 5 μg/mL): 33.3%; inhibition of TNF-α-induced IL-8 promoter activity (IL-8 promoter; TNF-α 10 ng/mL): 35.9%; inhibition of LPS-induced NF-κB-driven transcription (NF-κB; LPS 5 μg/mL): 29.9%; inhibition of TNF-α-induced NF-κB-driven transcription (NF-κB; TNF-α 10 ng/mL): 59.9%; inhibition of LPS-induced NF-κB nuclear translocation (NF-κB (p65); LPS 5 μg/mL, 1 h): 53.2%; inhibition of TNF-α-induced NF-κB nuclear translocation (NF-κB (p65); TNF-α 10 ng/mL, 1 h): 62.4%; inhibition of UVB-induced NF-κB nuclear translocation (NF-κB (p65); UVB 40 mJ/cm^2, 1 h): 39.1%; inhibition of H2O2-induced VEGF secretion (VEGF; H2O2 100 μM, 24 h): 100%; inhibition of LPS-induced VEGF secretion (VEGF; LPS 5 μg/mL, 30 h): 100%; inhibition of TNF-α-induced VEGF secretion (VEGF; TNF-α 10 ng/mL, 24 h): 78.7%; inhibition of LPS-induced MMP-9 secretion (MMP-9; LPS 5 μg/mL, 30 h): no inhibition; inhibition of TNF-α-induced MMP-9 secretion (MMP-9; TNF-α 10 ng/mL, 24 h): 38.0%"

# The next lines start with results.
"Retained Amount in the Epidermidis ± SD [1, 4] [µg/g]","Permeated Amount ± SD [1, 5] [µg/g]","Permeated Amount (% Recovery) [1, 6] [%]","Retained Amount in the Epidermidis (% Recovery) [1, 6] [%]",Compound,"recovery [1, 2] [%]","recovery [1, 3] [%]",further results
0.30 ± 0.60,1.63 ± 2.08,0.071,0.013,OC[C@H]1O[C@@H](Oc2cc3c(O)cc(O)cc3[o+]c2-c2ccc(O)c(O)c2)[C@H](O)[C@@H](O)[C@@H]1O [Cyanidin 3-O-glucoside],,,
3.53 ± 3.90,2.09 ± 1.70,0.055,0.094,O=c1c(O[C@@H]2O[C@H](CO)[C@@H](O)[C@H](O)[C@H]2O)c(-c2ccc(O)cc2)oc2cc(O)cc(O)c12 [Kaempferol 3-O-glucoside],,,
0.58 ± 1.17,2.17 ± 2.72,0.114,0.030,COc1cc(-c2[o+]c3cc(O)cc(O)c3cc2O[C@@H]2O[C@H](CO)[C@@H](O)[C@H](O)[C@H]2O)ccc1O [Peonidin 3-O-glucoside],,,
13.58 ± 15.88,8.74 ± 9.50,,,O=c1c(O[C@@H]2O[C@H](CO)[C@@H](O)[C@H](O)[C@H]2O)c(-c2ccc(O)c(O)c2)oc2cc(O)cc(O)c12 [Quercetin 3-O-glucoside],0.04,0.063,"IL-8 release induced by TNF-α, pure compounds (IL-8): failed to reduce IL-8 release; Permeated Amount ± SD ([1]; µg per g VVWE, human epidermis, Franz cell, 150 mg VVWE, 48 h, receiver phase, listed as quercetin 3-O-glucoside): 8.74 µg/g; Retained Amount in the Epidermidis ± SD ([1]; µg per g VVWE, human epidermis, Franz cell, 150 mg VVWE, listed as quercetin 3-O-glucoside): 13.58 µg/g"
